Key:
[1] = tested on: HCT 116 (colon) cells; assay: Anti-cancer screen (MTT), HCT 116; type: cell-based; details: Homo sapiens, HCT-116, HCT116, 48 hours, MTT; for GI50: read-out: Cell growth inhibition HCT116 (Colon) GI50; for CC50: read-out: Cell growth inhibition HCT116 (Colon) LC50; for IC (TGI): read-out: Cell growth inhibition HCT116 (Colon) TGI
Method in brief: (§1)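 A570 read-out after a 3 h MTT step and DMSO solubilisation; a separate plate measured at drug addition served as T0. Treatment lasted 48 h at five concentrations (0.01–100 μM) after 24 h attachment in DMEM/10% FBS; SAHA as standard.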

[2] = tested on: U251 (glioma) cells; assay: Anti-cancer screen (MTT), U251; type: cell-based; details: Homo sapiens, U-251, U251, 48 hours, MTT; for GI50: read-out: Cell growth inhibition U251 (Glioma) GI50; for LC50 (concentration giving 50% net cell kill relative to the time-zero cell count): read-out: Cell growth inhibition U251 (Glioma) LC50; for IC (TGI): read-out: Cell growth inhibition U251 (Glioma) TGI
Method in brief: as §1

[3] = tested on: NCIH460 (lung) cells; assay: Anti-cancer screen (MTT), NCIH460; type: cell-based; details: Homo sapiens, NCI-H460, NCIH460, 48 hours, MTT; for GI50: read-out: Cell growth inhibition NCIH460 (Lung) GI50; for LC50: read-out: Cell growth inhibition NCIH460 (Lung) LC50; for IC (TGI): read-out: Cell growth inhibition NCIH460 (Lung) TGI
Method in brief: as §1

[4] = tested on: HDAC (Mouse Liver Extract); assay: HDAC inhibition assay using Boc-Lys(Ac)-AMC substrate; type: biochemical; details: mouse liver enzyme
Method in brief: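 Released AMC measured at 360 nm excitation, 460 nm emission after 15-30 min trypsin development at 37° C. Preceding deacetylation: mouse liver extract with acetylated-lysine AMC substrate, 30 min at 37° C after 5-min preincubation; blanks were buffer alone and substrate alone.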

[5] = tested on: NCIH460, HCT116 and U251 cells; assay: Anti-cancer screen, mean GI50 over cell lines; type: cell-based; details: mean over cell lines; read-out: Cell growth inhibition Mean GI50
Method in brief: as §1

Structure (SMILES)	GI50 [1] [µM]	CC50 [1] [µM]	IC (TGI) [1] [µM]	GI50 [2] [µM]	LC50 (concentration giving 50% net cell kill relative to the time-zero cell count) [2] [µM]	IC (TGI) [2] [µM]	GI50 [3] [µM]	LC50 [3] [µM]	IC (TGI) [3] [µM]	HDAC inhibition % (1 μM) [4] [%]	HDAC inhibition % (10 μM) [4] [%]	GI50 [5] [µM]	IC50 [4] [µM]
COc1ccc(/C=C(/C(=O)NCc2ccc(C(=O)Nc3ccccc3N)cc2)c2ccccc2)c(OC)c1 [Compound 39, N-(2-Aminophenyl)-4-((3-(2,4-dimethoxyphenyl)-2-phenylacrylamido)methyl)benzamide]	0.7	> 100	80	3.2	> 100	100	3.2	> 100	> 100	9.1	18.9	2.4	–
CSc1ccc(/C=C(/C(=O)NCc2ccc(C(=O)Nc3ccccc3N)cc2)c2ccc(C)cc2)cc1 [Compound 25, N-(2-Aminophenyl)-4-((3-(4-methylthiophenyl)-2-(4-methylphenyl)acrylamido)methyl)benzamide]	7.5	90	48	6.5	89	37	19	100	58	63.8	68.1	11	–
O=C(CCCCCNC(=O)/C(=C/c1ccccc1)c1ccccc1)NO [Compound 88, 6-(2,3-Diphenylacrylamido)-N-hydroxy hexanamide]	5	> 100	22.5	7.8	78	37.5	21	91	57.5	81.5	95.4	11.3	–
CSc1ccc(/C=C(/C(=O)NCc2ccc(C(=O)NO)cc2)c2ccccc2Cl)cc1 [Compound 56, 4-((2-(2-Chlorophenyl)-3-(4-methylthiophenyl)acrylamido)methyl)-N-hydroxybenzamide]	> 100	> 100	> 100	0.1	> 100	0.1	> 100	> 100	> 100	7.7	8.0	> 100	–
CSc1ccc(/C=C(/C(=O)NCCCCCC(=O)NO)c2ccsc2)cc1 [Compound 90, 6-(2-(Thiophen-3-yl)-3-(4-methylthiophenyl)acrylamido)-N-hydroxy hexanamide]	3	> 100	6	0.8	82	6.1	0.1	30	5	78.2	98.9	1.3	0.04
COc1ccc(/C=C(/C(=O)NCc2ccc(C(=O)Nc3ccccc3N)cc2)c2ccc(F)cc2)cc1 [Compound 11, N-(2-Aminophenyl)-4-((3-(4-methoxyphenyl)-2-(4-fluorophenyl)acrylamido)methyl)benzamide]	5	68.5	12.5	26.1	86	53	8	83	41.2	9.7	24.6	13	–
O=C(NCc1ccc(C(=O)NO)cc1)/C(=C/c1ccc(F)cc1)c1ccc(C(F)(F)F)cc1 [Compound 50, 4-((2-(4-Trifluoromethyllphenyl)-3-(4-fluorophenyl)acrylamido)methyl)-N-hydroxybenzamide]	22	88	55	43	87	72	38	92	69	50.1	87.1	34.3	–
COc1ccc(/C=C(/C(=O)NCc2ccc(C(=O)NO)cc2)c2ccc(F)cc2)cc1 [Compound 53, 4-((2-(4-Fluorophenyl)-3-(4-methoxyphenyl)acrylamido)methyl)-N-hydroxybenzamide]	3	51	17	2.9	30	7	5.5	49	20	88.6	94.4	3.8	0.04
O=C(NCc1ccc(C(=O)NO)cc1)/C(=C/c1c(F)cc(F)cc1F)c1ccc(F)cc1 [Compound 54, 4-((2-(4-Fluorophenyl)-3-(2,4,6-trifluorophenyl)acrylamido)methyl)-N-hydroxybenzamide]	4.4	59	20	19	64	25	8	68	24	67.5	89.8	10.5	–
COC(=O)c1ccc(/C=C(/C(=O)NCc2ccc(C(=O)Nc3ccccc3N)cc2)c2ccc(OC)cc2)cc1 [Compound 35, N-(2-Aminophenyl)-4-((3-(4-carbmethoxyphenyl)-2-(4-methoxyphenyl)acrylamido)methyl)benzamide]	2	> 100	> 100	> 100	> 100	> 100	> 100	> 100	> 100	24.8	41.1	2	–
CSc1ccc(/C=C(/C(=O)NCc2ccc(C(=O)Nc3ccccc3N)cc2)c2ccc(F)cc2)cc1 [Compound 6, N-(2-Aminophenyl)-4-((3-(4-methylthiophenyl)-2-(4-fluorophenyl)acrylamido)methyl)benzamide]	4.8	95.8	46	< 0.01	83.2	22	8.8	90	47	4.2	25.8	4.5	–
COc1ccc(/C=C(/C(=O)NCc2ccc(C(=O)Nc3ccccc3N)cc2)c2cccs2)cc1OC [Compound 37, N-(2-Aminophenyl)-4-((3-(3,4-dimethoxyphenyl)-2-(thiophen-2-yl)acrylamido)methyl)benzamide]	1.1	80	6	2.6	51	7	2	100	6	31.7	59.9	1.9	5

Source: patent US8476255B2, “Histone deacetylase inhibitors” (Orchid Chemicals & Pharmaceuticals Limited, priority 2007, dated 2013)
